Here are results for six compounds from patent US11903386B2, “Strigolactone analogs and their usage in plant control” (King Abdullah University of Science and Technology, priority 2016, dated 2024).

Molecules are shown by their SMILES. Entries after “also recorded” stand apart in the source; their conditions may differ.

The subject of data set [1] is Arabidopsis seedlings. The data set is described as follows: Arabidopsis hypocotyl elongation assay. The following applies: 1.0 μM. Type of data set: in vivo. The protocol:
Sterilized Arabidopsis seeds were sown on half strength MS (with 0.5% sucrose+1% agar, 0.5 g L-1 MES, pH 5.7) plates supplemented with MPs or GR24 (at 1.0 μM). Plates were stored at 4° C. in darkness for 3 days. To initiate germination, plates were exposed to continuous white light for 24 h then transferred to continuous monochromatic red light (160 Lux, 22° C.) conditions for another 4 days. For hypocotyl length measurement, at least 30 seedlings were measured using the publically available ImageJ software (http://rsbweb.nih.gov/ij/) after taking digital photographs. Monochromatic red light source was applied as described previously (Wu and Yang, 2010). Light flow rates were measured using a Li250 quantum photometer (Li-Cor, Lincoln, NE, USA).

The nature of data set [2]: Chemical stability of MPs in aqueous solution, monitored by HPLC. Type of data set: physicochemical. The settings on record: aqueous solution pH 6.8, 21° C., monitored at 24 h intervals up to 3 weeks. Here is the method: Aqueous solutions of MPs (50 μg ml-1; pH 6.8) were incubated at 21° C. in amber HPLC vials. For sample preparation, 50 μl of an acetone solution (1 mg ml-1) was diluted to the final concentration with methanol (425 μl), water (500 μl) and 25 μl of 1-Indanol (1.0 mg ml-1 solution in acetone) as internal standard. […] The column was operated at 35° C. with a flow rate of 0.25 ml per min. Compounds eluted from the column were detected with a Diode array detector. Relative quantity of remaining (non-degraded) product was determined by comparison to the internal standard.

Data set [3] deals with S. hermonthica. The following applies: in vivo; cited from earlier work.
For data set [4], the system named is Arabidopsis seedlings. The data set is described as follows: Arabidopsis lateral root density and primary root length. Type of data set: in vivo. The settings on record: 1.0 μM, 8 days old seedlings. Here is the method:
Sterilized Arabidopsis seeds were sown on half strength MS (with 0.5% sucrose+1% agar, 0.5 g L^−1 MES, pH 5.7) plates supplemented with GR24 or MPs (at 1.0 μM). Plates were stored at 4° C. in darkness for 3 days and then vertically grown at 22° C. in Percival incubator under long day condition (16 h at 22° C./8 h at 16° C. day/night, 60% relative humidity, 4000-5000 LUX white light) for 8 days. For determining the effect on lateral root density and primary root length, at least 30 seedlings were measured using publically available ImageJ software (http://rsbweb.nih.gov/ij/) after scanning roots.

Data set [5] has as its system P. ramosa seeds. The data set can be described thus: P. ramosa seed germination bioassay. In kind it is in vivo. The following applies: 1.0 μM. Here is the method: (§1) Parasitic weed seeds (S. hermonthica and P. ramosa) germination activity was recorded as described previously (Jamil et al., 2012). Six pre-conditioned seed discs were placed in a 90 mm petri-dish containing a filter paper ring wetted with 0.9 ml sterile MilliQ water. […] GR24 solutions with equal concentrations and sterile MilliQ water were included as a positive and negative control, respectively. After application, seeds were incubated at 30° C./25° C. in the dark for two days. Germination (seeds with radical emerging through seed coat) was scored under a binocular microscope, and germination rate (%) was calculated.

In data set [6] the test system is rice seedlings (Shiokari, d3, d10). The data set can be described thus: Growth and fresh biomass of hydroponically grown rice seedlings. Type of data set: in vivo. The following applies: 2.5 μM, twice a week for three weeks. Here is the method: Rice seeds (WT, d3, d10) were surface-sterilized by washing with 70% ethanol for 1 min and then with 2.5% sodium hypochlorite for 15 min. Seeds were then rinsed thoroughly with sterile MilliQ water and incubated in water for 2 days at 30° C. in the dark. Pre-germinated seeds were transferred to filter papers containing ½ strength MS medium in 90 mm petri dishes and incubated at 30° C. under fluorescent white light (130-180 μM m^−2 s^−1) for one week. Seven day-old seedlings were transferred to 50 ml falcon tubes (one seedling per tube) containing modified half-strength Hoagland nutrient solution and grown in greenhouse. Plants were treated with MPs at 2.5 μM-2.5×10-7 μM, using GR24 as positive control. The compounds were applied six times, twice a week. Number of tillers per plant, plant height and fresh biomass were measured at final harvest.

Data set [7] relates to S. hermonthica seeds. The data set can be described thus: Striga hermonthica seed germination bioassay. Type of data set: in vivo. The following applies: comparison between compounds. The protocol: as §1, with “calculated. Statistical analyses were carried out using statistical software package R (version 3.2.2). Dose-response curves and Half Maximum Effective Concentrations (EC50) were calculated to determine optimum amount of MPs. Synthetic strigolactone analog GR24 was used as reference to estimate efficacy of selected compounds. EC50 and estimated response were calculated using drc package (https://cran.r390 project.org/web/packages/drc/) with a Four Parameter Logistic Curve (Dose Response Curve) (Ritz and Streibig, 2005).” for “calculated.”

Turning to `CC1=CC(O/C=C(/C=O)c2ccc([N+](=O)[O-])cc2)OC1=O` (racemic) [MP12, (E)-3-(4-methyl-5-oxo-2,5-dihydrofuran-2-yloxy)-2-(4-nitrophenyl)acrylaldehyde], in data set [1], the “Inhibition of hypocotyl growth” value was “Apart from MP12 and MP15, all MPs showed significant inhibition”. Further, in data set [2], the “Stability in comparison to GR24” value is “not detectable even after only 24 h”. `CC1=CC(O/C=C(C)\C=C\C2=C(C)CCCC2(C)C)OC1=O` (centres unmarked) [Carlactone]: the “Activity in S. hermonthica seed germination” value in data set [3] is recorded as “considerable activity”. Take `CC1=CC(O/C=C2/C(=O)OCc3ccccc32)OC1=O` (centres unmarked) [MP5]: the “Stability in comparison to GR24” value in data set [2] is given as “more stable than GR24; also recorded: the most stable compound”. For `COC(=O)/C(=C/OC1C=C(C)C(=O)O1)c1cccc(Cl)c1` (centres unmarked) [MP8], the “Reduction of number of lateral roots / lateral root density” value in data set [4] is listed as “slightly more active than GR24”. Also, the “Stability in comparison to GR24” value in data set [2] is “very similar to that of GR24”. Besides, the “P. ramosa seed germination activity” value in data set [5] is listed as “much higher activity”.

For the compound `COC(=O)/C(=C/OC1C=C(C)C(=O)O1)c1ccccc1Cl` (centres unmarked) [MP9], the “Growth, senescence symptoms and biomass of rice seedlings” value in data set [6] is “stunted the growth and caused senescence symptoms”. The “Relative activity in inducing S. hermonthica seed germination” value in data set [7] was “followed by MP9”. Further, in data set [2], the “Stability in comparison to GR24” value is given as “very similar to that of GR24”.

For the compound `COC(=O)/C(=C/OC1C=C(C)C(=O)O1)c1ccc(OC)cc1` (centres unmarked) [MP14], the “Stability in comparison to GR24” value in data set [2] is on record as “very similar to that of GR24”.
